Patent US9474790B2, “Stable, protracted GLP-1/glucagon receptor co-agonists for medical use” (Novo Nordisk A/S, priority 2013, dated 2016)
Numbered stars: 1 amine (or outer) side, 2 acyl side, 3 side chain; on linkers, the order of the positions; unused ones are H or OH. Bridge positions count the residues as written; N and C are the ends. Square brackets hold non-standard residues; d marks the D form. Side chains are listed from the residue outwards. Peptide text beside a SMILES is read from it. I, II: the chains in the order shown. * marks the point of attachment. C18 diacid = O=C(O)CCCCCCCCCCCCCCCCC(=O)*; γGlu = O=C(O)[C@H](CCC(=O)[*:2])N[*:1]; Ac4c = NC1(C(=O)O)CCC1; AEEA = NCCOCCOCC(=O)O; Aib = CC(C)(N)C(=O)O

The compounds below were run against T1, human glucagon receptor (Homo sapiens, UniProt P47871) (assay: Glucagon receptor binding, 125I-glucagon displacement SPA on isolated membranes). Conditions: displacement of 125I-glucagon from membranes; read-out: IC50 GlucR.
T1 construct: expressed in transfected cells; host or cells: BHK cells (parent BHK570, CRE luciferase clone BHK/KZ10-20-48), clone pLJ6'-4-25
T1 sequence (P47871 26-477): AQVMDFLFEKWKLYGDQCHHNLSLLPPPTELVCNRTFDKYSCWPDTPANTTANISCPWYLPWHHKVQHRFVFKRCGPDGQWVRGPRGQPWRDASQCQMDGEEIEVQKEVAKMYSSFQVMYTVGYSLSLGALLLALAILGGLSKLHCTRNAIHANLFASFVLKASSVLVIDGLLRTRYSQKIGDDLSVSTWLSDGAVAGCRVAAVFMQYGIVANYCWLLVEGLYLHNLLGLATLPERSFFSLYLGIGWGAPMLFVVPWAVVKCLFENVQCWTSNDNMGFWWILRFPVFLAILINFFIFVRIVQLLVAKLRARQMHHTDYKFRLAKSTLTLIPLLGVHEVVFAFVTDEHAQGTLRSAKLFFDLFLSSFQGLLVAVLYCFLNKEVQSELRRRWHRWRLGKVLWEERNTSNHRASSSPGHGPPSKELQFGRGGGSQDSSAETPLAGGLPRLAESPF
Summary of the method: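 Displacement IC50 derived by non-linear regression of SPA counts after 2 h, 25 °C incubation of compound with [125I]-glucagon (480 pM solution, 25 μl) and membranes of hGCGR-transfected BHK cells. Buffer was HEPES pH 7.4 with ovalbumin; serum albumin was held at 0.001% max or 0.2% final.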

| IC50 [nM] | SMILES |
| --- | --- |
| 0.6 | CC(C)C[C@H](NC(=O)[C@H](Cc1ccc(O)cc1)NC(=O)[C@H](CCCCN)NC(=O)[C@H](CO)NC(=O)[C@H](CC(C)C)NC(=O)[C@H](CC(=O)O)NC(=O)[C@H](CO)NC(=O)[C@@H](NC(=O)[C@H](Cc1ccccc1)NC(=O)[C@@H](NC(=O)CNC(=O)[C@H](CCC(N)=O)NC(=O)C1(NC(=O)[C@@H](N)Cc2c[nH]cn2)CCC1)[C@@H](C)O)[C@@H](C)O)C(=O)N[C@@H](CCC(=O)O)C(=O)N[C@@H](CO)C(=O)N[C@@H](CCCCN)C(=O)N[C@@H](CCCNC(=N)N)C(=O)N[C@@H](C)C(=O)N[C@@H](CCCNC(=N)N)C(=O)N[C@@H](CCC(=O)O)C(=O)N[C@@H](Cc1ccccc1)C(=O)N[C@H](C(=O)N[C@@H](CCC(N)=O)C(=O)N[C@@H](Cc1c[nH]c2ccccc12)C(=O)N[C@@H](CC(C)C)C(=O)N[C@@H](CC(C)C)C(=O)N[C@@H](CCCCNC(=O)CNC(=O)[C@H](CO)NC(=O)[C@H](CCC(=O)O)NC(=O)CNC(=O)[C@H](CO)NC(=O)CC[C@H](NC(=O)CC[C@H](NC(=O)CCCCCCCCCCCCCCCCC(=O)O)C(=O)O)C(=O)O)C(=O)N[C@H](C(N)=O)[C@@H](C)O)C(C)C [Example 36, N^ε28-[2-[[(2S)-2-[[(2S)-4-carboxy-2-[[2-[[(2S)-2-[[(4S)-4-carboxy-4-[[(4S)-4-carboxy-4-(17-carboxyheptadecanoylamino)butanoyl]amino]butanoyl]amino]-3-hydroxypropanoyl]amino]acetyl]amino]butanoyl]amino]-3-hydroxypropanoyl]amino]acetyl]-[Acb2,Leu10,Glu15,Lys17, Arg20,Glu21,Leu27,Lys28]-Glucagon amide] (I: H-H[Ac4c]QGTFTSDLSKYLESKRAREFVQWLLKT-NH2 / II: {C18 diacid-γGlu-γGlu}-SGESG; amide I:28-II:C; N-terminus assumed) |
| 5.6 | CC(C)C[C@H](NC(=O)[C@H](Cc1ccc(O)cc1)NC(=O)[C@H](CCCCN)NC(=O)[C@H](CO)NC(=O)[C@H](CC(C)C)NC(=O)[C@H](CC(=O)O)NC(=O)[C@H](CO)NC(=O)[C@@H](NC(=O)[C@H](Cc1ccccc1)NC(=O)[C@@H](NC(=O)CNC(=O)[C@H](CCC(N)=O)NC(=O)C(C)(C)NC(=O)[C@@H](N)Cc1c[nH]cn1)[C@@H](C)O)[C@@H](C)O)C(=O)N[C@@H](CC(=O)O)C(=O)N[C@@H](C)C(=O)N[C@@H](CCCNC(=N)N)C(=O)N[C@@H](CCCNC(=N)N)C(=O)N[C@@H](C)C(=O)N[C@@H](CCCNC(=N)N)C(=O)N[C@@H](CCC(=O)O)C(=O)N[C@@H](Cc1ccccc1)C(=O)N[C@H](C(=O)N[C@@H](CCC(N)=O)C(=O)N[C@@H](Cc1c[nH]c2ccccc12)C(=O)N[C@@H](CC(C)C)C(=O)N[C@@H](CC(C)C)C(=O)N[C@@H](CC(N)=O)C(=O)N[C@@H](CCCCNC(=O)CC[C@H](NC(=O)CC[C@H](NC(=O)COCCOCCNC(=O)CC[C@H](NC(=O)CCCCCCCCCCCCCCCCC(=O)O)C(=O)O)C(=O)O)C(=O)O)C(N)=O)C(C)C [Example 39, N^ε29-[(4S)-4-carboxy-4-[[(4S)-4-carboxy-4-[[2-[2-[2-[[(4S)-4-carboxy-4-(17-carboxyheptadecanoylamino)butanoyl]amino]ethoxy]ethoxy]acetyl]amino]butanoyl]amino]butanoyl]-[Aib2,Leu10,Ala16,Arg20,Glu21,Leu27,Lys29]-Glucagon amide] (H-H[Aib]QGTFTSDLSKYLDARRAREFVQWLLNK([γGlu-γGlu-AEEA-γGlu-C18 diacid])-NH2; N-terminus assumed) |
| 1.2 | CC(C)C[C@H](NC(=O)[C@H](Cc1ccc(O)cc1)NC(=O)[C@H](CCCCN)NC(=O)[C@H](CO)NC(=O)[C@H](CC(C)C)NC(=O)[C@H](CC(=O)O)NC(=O)[C@H](CO)NC(=O)[C@@H](NC(=O)[C@H](Cc1ccccc1)NC(=O)[C@@H](NC(=O)CNC(=O)[C@H](CCC(N)=O)NC(=O)C(C)(C)NC(=O)[C@@H](N)Cc1c[nH]cn1)[C@@H](C)O)[C@@H](C)O)C(=O)N[C@@H](CCC(=O)O)C(=O)N[C@@H](CO)C(=O)N[C@@H](CCCNC(=N)N)C(=O)N[C@@H](CCCNC(=N)N)C(=O)N[C@@H](C)C(=O)N[C@@H](CCCNC(=N)N)C(=O)N[C@@H](CCC(=O)O)C(=O)N[C@@H](Cc1ccccc1)C(=O)N[C@H](C(=O)N[C@@H](CCC(N)=O)C(=O)N[C@@H](Cc1c[nH]c2ccccc12)C(=O)N[C@@H](CC(C)C)C(=O)N[C@@H](CC(C)C)C(=O)N[C@@H](CCCCNC(=O)CC[C@H](NC(=O)CC[C@H](NC(=O)CC[C@H](NC(=O)CCCCCCCCCCCCCCCCC(=O)O)C(=O)O)C(=O)O)C(=O)O)C(=O)N[C@H](C(N)=O)[C@@H](C)O)C(C)C [Example 41, N^ε28-[(4S)-4-carboxy-4-[[(4S)-4-carboxy-4-[[(4S)-4-carboxy-4-(17-carboxyheptadecanoylamino)butanoyl]amino]butanoyl]amino]butanoyl]-[Aib2,Leu10,Glu15, Arg20,Glu21,Leu27,Lys28]-Glucagon amide] (H-H[Aib]QGTFTSDLSKYLESRRAREFVQWLLK([γGlu-γGlu-γGlu-C18 diacid])T-NH2; N-terminus assumed) |
| 38.2 | CC(C)C[C@H](NC(=O)[C@H](Cc1ccc(O)cc1)NC(=O)[C@H](CCCCN)NC(=O)[C@H](CO)NC(=O)[C@H](CC(C)C)NC(=O)[C@H](CC(=O)O)NC(=O)[C@H](CO)NC(=O)[C@@H](NC(=O)[C@H](Cc1ccccc1)NC(=O)[C@@H](NC(=O)CNC(=O)[C@H](CCC(N)=O)NC(=O)C(C)(C)NC(=O)[C@@H](N)Cc1c[nH]cn1)[C@@H](C)O)[C@@H](C)O)C(=O)N[C@@H](CCC(=O)O)C(=O)N[C@@H](CO)C(=O)N[C@@H](CCCNC(=N)N)C(=O)N[C@@H](CCCNC(=N)N)C(=O)N[C@@H](C)C(=O)N[C@@H](CCCNC(=N)N)C(=O)N[C@@H](CCC(=O)O)C(=O)N[C@@H](Cc1ccccc1)C(=O)N[C@H](C(=O)N[C@@H](CCC(N)=O)C(=O)N[C@@H](Cc1c[nH]c2ccccc12)C(=O)N[C@@H](CC(C)C)C(=O)N[C@@H](CC(C)C)C(=O)N[C@@H](CCCCNC(=O)COCCOCCNC(=O)COCCOCCNC(=O)CC[C@H](NC(=O)CC[C@H](NC(=O)CC[C@H](NC(=O)CCCCCCCCCCCCCCCCC(=O)O)C(=O)O)C(=O)O)C(=O)O)C(=O)N[C@H](C(N)=O)[C@@H](C)O)C(C)C [Example 42, N^ε28-[2-[2-[2-[[2-[2-[2-[[(4S)-4-carboxy-4-[[(4S)-4-carboxy-4-[[(4S)-4-carboxy-4-(17-carboxyheptadecanoylamino)butanoyl]amino]butanoyl]amino]butanoyl]amino]ethoxy]ethoxy]acetyl]amino]ethoxy]ethoxy]acetyl]-[Aib2,Leu10,Glu15,Arg20,Glu21,Leu27,Lys28]-Glucagon amide] (H-H[Aib]QGTFTSDLSKYLESRRAREFVQWLLK([AEEA-AEEA-γGlu-γGlu-γGlu-C18 diacid])T-NH2; N-terminus assumed) |
| 5.6 | CC(C)C[C@H](NC(=O)[C@H](Cc1ccc(O)cc1)NC(=O)[C@H](CCCCN)NC(=O)[C@H](CO)NC(=O)[C@H](CC(C)C)NC(=O)[C@H](CC(=O)O)NC(=O)[C@H](CO)NC(=O)[C@@H](NC(=O)[C@H](Cc1ccccc1)NC(=O)[C@@H](NC(=O)CNC(=O)[C@H](CCC(N)=O)NC(=O)C(C)(C)NC(=O)[C@@H](N)Cc1c[nH]cn1)[C@@H](C)O)[C@@H](C)O)C(=O)N[C@@H](CC(=O)O)C(=O)N[C@@H](C)C(=O)N[C@@H](CCCNC(=N)N)C(=O)N[C@@H](CCCNC(=N)N)C(=O)N[C@@H](C)C(=O)N[C@@H](CCCNC(=N)N)C(=O)N[C@@H](CCC(=O)O)C(=O)N[C@@H](Cc1ccccc1)C(=O)N[C@H](C(=O)N[C@@H](CCC(N)=O)C(=O)N[C@@H](Cc1c[nH]c2ccccc12)C(=O)N[C@@H](CC(C)C)C(=O)N[C@@H](CC(C)C)C(=O)N[C@@H](CCCCNC(=O)CC[C@H](NC(=O)CC[C@H](NC(=O)COCCOCCNC(=O)COCCOCCNC(=O)CC[C@H](NC(=O)CCCCCCCCCCCCCCCCC(=O)O)C(=O)O)C(=O)O)C(=O)O)C(=O)N[C@H](C(N)=O)[C@@H](C)O)C(C)C [Example 43, N^ε28-[(4S)-4-carboxy-4-[[(4S)-4-carboxy-4-[[2-[2-[2-[[2-[2-[2-[[(4S)-4-carboxy-4-(17-carboxyheptadecanoylamino)butanoyl]amino]ethoxy]ethoxy]acetyl]amino]ethoxy]ethoxy]acetyl]amino]butanoyl]amino]butanoyl]-[Aib2,Leu10,Ala16,Arg20,Glu21,Leu27,Lys28]-Glucagon amide] (H-H[Aib]QGTFTSDLSKYLDARRAREFVQWLLK([γGlu-γGlu-AEEA-AEEA-γGlu-C18 diacid])T-NH2; N-terminus assumed) |
| 7.2 | CC(C)C[C@H](NC(=O)[C@H](Cc1ccc(O)cc1)NC(=O)[C@H](CCCCN)NC(=O)[C@H](CO)NC(=O)[C@H](CC(C)C)NC(=O)[C@H](CC(=O)O)NC(=O)[C@H](CO)NC(=O)[C@@H](NC(=O)[C@H](Cc1ccccc1)NC(=O)[C@@H](NC(=O)CNC(=O)[C@H](CCC(N)=O)NC(=O)C1(NC(=O)[C@@H](N)Cc2c[nH]cn2)CCC1)[C@@H](C)O)[C@@H](C)O)C(=O)N[C@@H](CCC(=O)O)C(=O)N[C@@H](CO)C(=O)N[C@@H](CCCNC(=N)N)C(=O)N[C@@H](CCCNC(=N)N)C(=O)N[C@@H](C)C(=O)N[C@@H](CCCNC(=N)N)C(=O)N[C@@H](CCC(=O)O)C(=O)N[C@@H](Cc1ccccc1)C(=O)N[C@H](C(=O)N[C@@H](CCC(N)=O)C(=O)N[C@@H](Cc1c[nH]c2ccccc12)C(=O)N[C@@H](CC(C)C)C(=O)N[C@@H](CC(C)C)C(=O)N[C@@H](CCCCNC(=O)CC[C@H](NC(=O)CC[C@H](NC(=O)COCCOCCNC(=O)COCCOCCNC(=O)CC[C@H](NC(=O)CCCCCCCCCCCCCCCCC(=O)O)C(=O)O)C(=O)O)C(=O)O)C(=O)N[C@H](C(N)=O)[C@@H](C)O)C(C)C [Example 44, N^ε28-[(4S)-4-carboxy-4-[[(4S)-4-carboxy-4-[[2-[2-[2-[[2-[2-[2-[[(4S)-4-carboxy-4-(17-carboxyheptadecanoylamino)butanoyl]amino]ethoxy]ethoxy]acetyl]amino]ethoxy]ethoxy]acetyl]amino]butanoyl]amino]butanoyl]-[Acb2,Leu10,Glu15,Arg20,Glu21,Leu27,Lys28]-Glucagon amide] (H-H[Ac4c]QGTFTSDLSKYLESRRAREFVQWLLK([γGlu-γGlu-AEEA-AEEA-γGlu-C18 diacid])T-NH2; N-terminus assumed) |
